Entries after “also recorded” stand apart in the source; their conditions may differ. Like-named read-outs stand apart in the source and are kept apart here.
Key:
[1] = biological target: T1, AChE (EC 3.1.1.7, from electric eel) (Electrophorus electricus, UniProt O42275); assay: biochemical; assay type: biochemical; conditions: for SI for AChE = IC50 BChE/IC50 AChE: selectivity index for AChE over BChE
T1 construct: purchased Sigma-Aldrich (St. Louis, MO, USA)
Procedure: (§1) A Waters Acquity UPLC Class I/Xevo G2Q-Tof mass spectrometer (Milford, MA, USA) was used to obtain the high-resolution ESI-MS (HR-ESI-MS) data. ^1H and ^13C NMR spectra were acquired on a Bruker Avance III 400 spectrometer spectrometer (Karlsruhe, Germany) with TMS as an internal standard. ^1H-^1H DQF-COSY, NOESY, TOCSY, HSQC and HMBC spectra were recorded using standard Bruker programs spectrometer (Topspin 3.5pl6, Karlsruhe, Germany). […] Thin layer chromatography (TLC) analysis was performed on alumina plates coated with silica gel 60 and silica gel 60 RP-18 F254 (Merck) spectrometer (Darmstadt, Germany). Chromatographic separation was performed on self-packed columns with silica gel (Anhui Liangchen Silicon Material Co. Ltd., China) and reversed-phase silica gel (ODS-A 12 nm S-50 μm YMC Co., Kyoto, Japan). AChE (EC 3.1.1.7, from electric eel), BChE (EC 3.1.1.8, from equine serum), 5,5′-dithiobis(2-nitrobenzoic acid) (DTNB), acetylthiocholine iodide (ATCI), and butyrylthiocholine iodide (BTCI) were purchased from Sigma-Aldrich (St. Louis, MO, USA).
(§2) AChE (EC 3.1.1.7, from electric eel) and BChE (EC 3.1.1.8, from equine serum) were purchased from Sigma-Aldrich (St. Louis, MO, USA). […] After reaction for 15 min at 25 °C, 10 μL of 10 mM DTNB and 10 μL of 7.5 mM ATCI (BTCI) were added and then incubated for 40 min at 37 °C. […] Blank groups were set up by replacing the sample solution with 20 μL phosphate buffer (Ac). All tests were performed in triplicate.

[2] = biological target: T2, BChE (EC 3.1.1.8, from equine serum) (Equus caballus, UniProt P81908); assay: biochemical
T2 construct: purchased Sigma-Aldrich (St. Louis, MO, USA); host or cells: equine serum
Procedure: as §1, §2

[3] = biological target: T3, peripheral anionic site (PAS) of AChE (Electrophorus electricus, UniProt O42275); assay type: binding; conditions: test compounds 100 μM, propidium iodide 1 μM, AChE 5U
T3 construct: purchased Sigma-Aldrich (St. Louis, MO, USA)
Procedure: The assay mixture of AChE (5U) was incubated with test compounds (final concentration 100 μM, 150 μL) for 6 h at 25 °C. After reaction, 50 μL Propidium iodide (1 μM) was added. […] The percentage of displacement was calculated by the following expression: 100 − (IFi/IF0 × 100), where IFi and IF0 are the fluorescence intensities with and without the test compounds, respectively.

AChE = biological target: T4, AChE (Electrophorus electricus, UniProt O42275); assay: Enzyme kinetic analysis against AChE; assay type: biochemical; conditions: for Ki: Dixon and Cornish–Bowden plots; for type of AChE inhibition: Lineweaver–Burk plots, ATCI 3.75–15.00 mM; for reversibility of AChE inhibition: initial velocity versus enzyme concentration, AChE 0.025–0.10 U/mL
T4 construct: purchased Sigma-Aldrich (St. Louis, MO, USA)
Procedure: […]. Inhibition constants for AChE were determined from Dixon plot (1/Vi vs. (I)) and Cornish–Bowden transformation ((S)/Vi vs. (I)).

[4] = Metal-binding studies (UV spectra); assay type: physicochemical; conditions: UV 200–400 nm, compound 20 μM, CuCl2, FeCl2, ZnCl2, AlCl3 20 μM, methanol, 30 min
Procedure: The chelating studies were performed on an ultraviolet–visible spectrophotometry meter (HITACHI U-3900H, Tokyo, Japan). The UV absorption spectra of the test compound alone (20 μM, final concentration) or in the presence of CuCl2, FeCl2, ZnCl2 and AlCl3 (20 μM, final concentration) were recorded with the wavelength ranging from 200 to 400 nm after incubating for 30 min in methanol at room temperature.

[5] = means ± SD, at least three independent experiments, read-out: IC50 AChE
[6] = means ± SD, at least three independent experiments, read-out: IC50 BChE

T1 sequence (O42275 24-633): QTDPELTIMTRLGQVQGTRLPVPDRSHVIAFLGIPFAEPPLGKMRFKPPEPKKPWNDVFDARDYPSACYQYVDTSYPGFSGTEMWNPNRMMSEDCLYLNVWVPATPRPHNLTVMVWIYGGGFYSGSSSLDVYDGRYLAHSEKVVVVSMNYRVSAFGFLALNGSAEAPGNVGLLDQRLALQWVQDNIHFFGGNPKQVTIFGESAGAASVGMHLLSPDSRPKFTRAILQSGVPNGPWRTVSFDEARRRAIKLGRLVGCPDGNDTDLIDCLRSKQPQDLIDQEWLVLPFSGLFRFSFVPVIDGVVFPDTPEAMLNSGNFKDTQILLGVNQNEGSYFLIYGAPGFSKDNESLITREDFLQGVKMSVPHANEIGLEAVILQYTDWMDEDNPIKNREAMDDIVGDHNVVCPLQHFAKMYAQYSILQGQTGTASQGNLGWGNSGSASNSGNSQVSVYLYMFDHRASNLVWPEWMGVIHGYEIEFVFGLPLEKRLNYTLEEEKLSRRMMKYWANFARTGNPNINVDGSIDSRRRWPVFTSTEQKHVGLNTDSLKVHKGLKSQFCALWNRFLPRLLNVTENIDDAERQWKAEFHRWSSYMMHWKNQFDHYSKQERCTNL
T4 sequence (O42275 24-633): as above
T2 sequence (P81908 whole entry): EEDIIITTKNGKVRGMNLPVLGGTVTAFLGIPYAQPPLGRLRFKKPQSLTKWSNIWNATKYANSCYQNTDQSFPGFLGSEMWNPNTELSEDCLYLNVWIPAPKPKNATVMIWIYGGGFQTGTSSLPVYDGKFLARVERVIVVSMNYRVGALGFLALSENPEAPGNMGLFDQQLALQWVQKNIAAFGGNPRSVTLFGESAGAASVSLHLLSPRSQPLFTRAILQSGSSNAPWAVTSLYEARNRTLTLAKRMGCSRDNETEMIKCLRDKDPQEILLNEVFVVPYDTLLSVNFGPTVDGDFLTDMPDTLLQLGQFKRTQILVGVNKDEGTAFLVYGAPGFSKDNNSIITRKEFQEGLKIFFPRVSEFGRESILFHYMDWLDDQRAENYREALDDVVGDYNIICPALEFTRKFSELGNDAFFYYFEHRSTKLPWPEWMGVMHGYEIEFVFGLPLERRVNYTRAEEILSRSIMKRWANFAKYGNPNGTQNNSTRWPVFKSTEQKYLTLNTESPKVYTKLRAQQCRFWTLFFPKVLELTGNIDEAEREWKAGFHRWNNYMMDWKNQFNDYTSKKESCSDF
T3 sequence (O42275 24-633): as the sequence (O42275 24-633) above

Structure (SMILES)	IC50 [1, 5] [µM]	SI for AChE = IC50 BChE/IC50 AChE [1]	IC50 [2, 6] [µM]	Propidium Iodide Displacement [3] [%]	Ki (AChE; read-out: inhibition constant Ki,c (competitive component)) [µM]	Ki (AChE; read-out: inhibition constant Ki,nc (non-competitive component)) [µM]	type of AChE inhibition (AChE)	reversibility of AChE inhibition (AChE)	reversibility of AChE inhibition (AChE; listed as Buthutin A)	metal binding ability toward Cu2+, Fe2+, Zn2+ and Al3+ [4]	IC50 [1] [µM]	IC50 AChE [1]	IC50 [2] [µM]
N=C(N)NCCCCNC(=O)c1ccc(O)cc1 [Compound 1, N-(4-guanidinobutyl)-4-hydroxybenzamide]	7.83 ± 0.06	6.05	47.4 ± 0.95	18.29 ± 0.53	2.64 ± 0.35	5.66 ± 0.82	mixed type of inhibition	reversible inhibitors	reversible	satisfactory biometal binding abilities; also recorded: potent metal binding ability; also recorded: satisfactory metal-binding properties			
N=C(N)NCCCCNC(=O)c1ccccn1 [Compound 2, N-(4-guanidinobutyl)picolinamide]	61.4 ± 2.34	1.99	123 ± 5.21	17.95 ± 0.98			mixed type of inhibition	reversible inhibitors					
C[n+]1cccc(C(=O)[O-])c1 [Compound 3]										satisfactory biometal binding abilities; also recorded: potent metal binding ability; also recorded: satisfactory metal-binding properties	97.3 ± 4.18	weaker inhibitory effect	442 ± 7.99
CC(C)CCSS [Compound 4, 3-methylbuthyl hydrodisulfide]	40.9 ± 3.21	3.73	153 ± 7.22										
